According to patent US10344060B2 (priority 2013, dated 2019):
Like-named read-outs stand apart in the source and are kept apart here.

Columns and labels:
Experiment in all cases: cell-based
hNav1.5 [1] = target: T1, hNav1.5 (Homo sapiens, UniProt Q14524); settings: Table 12; ratio of PX tonic IC50 values
hNav1.4 [2] = target: T2, hNav1.4 (Homo sapiens, UniProt P35499); format: cell-based; settings: Table 12; ratio of PX tonic IC50 values
hNav1.7 [3] = target: T3, hNav1.7 (Homo sapiens, UniProt Q15858); settings: read-out: IC50 (μM) Nav1.7
hNav1.4 [4] = target: T2, hNav1.4; format: cell-based; settings: Table 6; for IC50: IonWorks Quattro, read-out: IC50 (μM) Nav1.4; for Nav1.4/Nav1.7: ratio of IonWorks Quattro IC50 values
hNav1.6 = hNav1.6 (Homo sapiens, UniProt Q9UQD0); format: cell-based; settings: Table 15; for IC50: read-out: PX hNav1.6 Tonic IC50; for Nav1.6/Nav1.7: ratio of PX tonic IC50 values
hNav1.3 = hNav1.3 (Homo sapiens, UniProt Q9NY46); settings: IonWorks Quattro; Table 6; read-out: IC50 (μM) Nav1.3
hNav1.5 [5] = target: T1, hNav1.5; settings: IonWorks Quattro; Table 6; read-out: IC50 (μM) Nav1.5
hNav1.7 [6] = target: T3, hNav1.7; format: cell-based; settings: for IC50: Table 15, read-out: PX hNav1.7 Tonic IC50; for Nav1.4/Nav1.7 / Nav1.5/Nav1.7: ratio of PX tonic IC50 values, Table 11

hNav1.3, sequence (Q9NY46 whole entry): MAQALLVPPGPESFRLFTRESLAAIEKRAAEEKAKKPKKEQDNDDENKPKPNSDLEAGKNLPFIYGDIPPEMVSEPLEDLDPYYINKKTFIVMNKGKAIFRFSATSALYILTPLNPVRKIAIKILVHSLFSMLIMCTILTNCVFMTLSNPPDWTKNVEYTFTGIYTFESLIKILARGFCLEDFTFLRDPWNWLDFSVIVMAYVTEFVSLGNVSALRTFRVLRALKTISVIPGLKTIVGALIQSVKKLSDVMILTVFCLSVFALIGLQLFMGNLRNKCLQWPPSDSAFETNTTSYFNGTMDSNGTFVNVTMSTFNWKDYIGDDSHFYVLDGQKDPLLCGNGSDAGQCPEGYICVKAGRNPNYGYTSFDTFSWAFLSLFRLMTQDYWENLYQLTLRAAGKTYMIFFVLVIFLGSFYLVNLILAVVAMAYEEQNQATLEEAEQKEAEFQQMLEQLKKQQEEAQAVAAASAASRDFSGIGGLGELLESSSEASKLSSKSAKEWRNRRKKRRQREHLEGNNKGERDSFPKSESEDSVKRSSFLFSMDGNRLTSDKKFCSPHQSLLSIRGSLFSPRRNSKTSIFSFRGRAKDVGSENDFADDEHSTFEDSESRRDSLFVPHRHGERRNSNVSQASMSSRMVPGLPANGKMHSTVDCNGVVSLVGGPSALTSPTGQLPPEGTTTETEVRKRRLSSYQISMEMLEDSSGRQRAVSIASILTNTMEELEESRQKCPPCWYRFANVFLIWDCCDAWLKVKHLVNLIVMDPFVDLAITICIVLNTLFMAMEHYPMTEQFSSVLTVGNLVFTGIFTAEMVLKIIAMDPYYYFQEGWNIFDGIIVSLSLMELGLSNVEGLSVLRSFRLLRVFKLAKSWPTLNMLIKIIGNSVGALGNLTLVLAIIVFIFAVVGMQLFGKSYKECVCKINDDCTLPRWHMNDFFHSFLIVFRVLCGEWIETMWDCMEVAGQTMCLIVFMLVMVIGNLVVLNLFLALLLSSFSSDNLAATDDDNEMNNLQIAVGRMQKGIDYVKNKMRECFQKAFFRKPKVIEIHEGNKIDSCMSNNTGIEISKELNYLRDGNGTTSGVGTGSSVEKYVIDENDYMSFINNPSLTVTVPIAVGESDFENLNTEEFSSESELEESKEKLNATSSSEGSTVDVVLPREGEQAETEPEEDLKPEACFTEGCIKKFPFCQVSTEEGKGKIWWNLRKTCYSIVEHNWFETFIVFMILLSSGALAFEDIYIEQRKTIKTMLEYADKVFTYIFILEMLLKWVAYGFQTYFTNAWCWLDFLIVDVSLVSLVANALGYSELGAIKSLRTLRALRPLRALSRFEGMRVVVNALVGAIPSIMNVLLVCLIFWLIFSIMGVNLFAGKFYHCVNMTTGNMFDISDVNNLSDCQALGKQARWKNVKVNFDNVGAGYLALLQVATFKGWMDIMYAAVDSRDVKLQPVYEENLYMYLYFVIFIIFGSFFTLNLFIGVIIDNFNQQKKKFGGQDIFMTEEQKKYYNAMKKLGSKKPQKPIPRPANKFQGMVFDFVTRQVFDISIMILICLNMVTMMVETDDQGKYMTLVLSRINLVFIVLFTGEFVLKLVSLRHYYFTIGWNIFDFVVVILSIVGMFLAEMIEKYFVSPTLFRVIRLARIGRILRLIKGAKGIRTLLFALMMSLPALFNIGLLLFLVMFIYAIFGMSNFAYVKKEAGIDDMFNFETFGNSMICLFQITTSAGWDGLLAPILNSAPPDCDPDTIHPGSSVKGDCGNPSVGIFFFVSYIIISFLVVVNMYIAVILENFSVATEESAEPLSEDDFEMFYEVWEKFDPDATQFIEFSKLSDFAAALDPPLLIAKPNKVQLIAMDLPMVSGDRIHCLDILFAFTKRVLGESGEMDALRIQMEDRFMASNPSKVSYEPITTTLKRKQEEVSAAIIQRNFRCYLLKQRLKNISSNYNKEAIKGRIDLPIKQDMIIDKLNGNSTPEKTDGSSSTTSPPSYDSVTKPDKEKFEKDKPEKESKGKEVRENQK
T2 sequence (P35499 whole entry): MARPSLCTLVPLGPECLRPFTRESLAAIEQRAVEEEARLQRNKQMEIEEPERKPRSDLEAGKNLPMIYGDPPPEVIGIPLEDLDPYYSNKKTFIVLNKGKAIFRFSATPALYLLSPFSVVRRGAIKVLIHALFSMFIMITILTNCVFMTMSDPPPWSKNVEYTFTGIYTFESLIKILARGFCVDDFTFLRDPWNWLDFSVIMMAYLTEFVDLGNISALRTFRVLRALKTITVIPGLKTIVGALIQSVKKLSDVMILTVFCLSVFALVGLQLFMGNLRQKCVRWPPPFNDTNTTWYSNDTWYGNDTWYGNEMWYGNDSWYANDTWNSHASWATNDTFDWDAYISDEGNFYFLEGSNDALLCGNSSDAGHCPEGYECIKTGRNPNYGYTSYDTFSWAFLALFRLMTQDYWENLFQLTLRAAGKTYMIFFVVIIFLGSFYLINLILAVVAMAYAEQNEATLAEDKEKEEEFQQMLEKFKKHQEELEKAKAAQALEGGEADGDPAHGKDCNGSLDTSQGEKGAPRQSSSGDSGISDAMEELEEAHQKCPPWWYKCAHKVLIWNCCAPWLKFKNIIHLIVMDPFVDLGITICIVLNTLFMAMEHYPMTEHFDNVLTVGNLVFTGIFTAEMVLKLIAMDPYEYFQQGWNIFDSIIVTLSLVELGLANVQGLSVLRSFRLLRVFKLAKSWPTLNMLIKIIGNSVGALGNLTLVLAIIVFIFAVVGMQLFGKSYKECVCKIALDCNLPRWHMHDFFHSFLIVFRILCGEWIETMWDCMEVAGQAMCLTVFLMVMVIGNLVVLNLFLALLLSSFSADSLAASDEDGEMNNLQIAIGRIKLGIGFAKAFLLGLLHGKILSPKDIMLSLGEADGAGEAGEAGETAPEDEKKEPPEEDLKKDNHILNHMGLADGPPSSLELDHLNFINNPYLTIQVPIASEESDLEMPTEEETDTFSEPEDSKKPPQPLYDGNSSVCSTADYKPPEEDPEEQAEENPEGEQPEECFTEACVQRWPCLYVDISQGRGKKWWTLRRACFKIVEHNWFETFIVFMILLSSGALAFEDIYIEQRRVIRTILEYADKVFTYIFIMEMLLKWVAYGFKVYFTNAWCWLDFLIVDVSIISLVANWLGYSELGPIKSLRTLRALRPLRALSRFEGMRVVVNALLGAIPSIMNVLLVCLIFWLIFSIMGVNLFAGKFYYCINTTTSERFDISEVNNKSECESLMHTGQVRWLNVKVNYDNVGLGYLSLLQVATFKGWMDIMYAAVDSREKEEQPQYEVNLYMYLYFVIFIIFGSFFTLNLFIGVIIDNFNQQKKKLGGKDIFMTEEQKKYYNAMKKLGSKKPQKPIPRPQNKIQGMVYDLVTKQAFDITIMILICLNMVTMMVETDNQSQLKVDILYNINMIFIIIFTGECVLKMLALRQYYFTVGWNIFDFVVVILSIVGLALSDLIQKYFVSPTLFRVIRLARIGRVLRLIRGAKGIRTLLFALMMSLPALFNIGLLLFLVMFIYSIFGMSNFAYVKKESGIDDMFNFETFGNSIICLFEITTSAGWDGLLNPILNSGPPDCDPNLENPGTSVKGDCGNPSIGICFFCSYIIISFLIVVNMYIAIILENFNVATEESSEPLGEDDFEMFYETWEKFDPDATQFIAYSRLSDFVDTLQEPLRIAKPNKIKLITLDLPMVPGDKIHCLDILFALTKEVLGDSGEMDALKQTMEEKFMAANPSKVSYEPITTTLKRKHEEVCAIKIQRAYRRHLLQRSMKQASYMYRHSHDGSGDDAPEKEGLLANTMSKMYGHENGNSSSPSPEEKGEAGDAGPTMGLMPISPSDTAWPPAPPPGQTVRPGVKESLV

Row | Compound | Nav1.5/Nav1.7 (hNav1.5 [1]) | Nav1.4/Nav1.7 (hNav1.4 [2]) | IC50 (hNav1.7 [3]) [µM] | IC50 (hNav1.4 [4]) [µM] | Nav1.4/Nav1.7 (hNav1.4 [4]) | IC50 (hNav1.6) [µM] | IC50 (hNav1.3) [µM] | IC50 (hNav1.5 [5]) [µM] | IC50 (hNav1.7 [6]) [µM] | Nav1.4/Nav1.7 (hNav1.7 [6]) | Nav1.5/Nav1.7 (hNav1.7 [6]) | Nav1.6/Nav1.7 (hNav1.6)
1 | C#CC[C@@H]1NC(=O)[C@H](CC(=O)O)NC(=O)[C@@H]2CSSC[C@@H]3NC(=O)[C@H](CCC(=O)O)NC(=O)[C@H](CC(C)C)NC(=O)CNC(=O)[C@H](CCC(=O)O)NC(=O)[C@H](CSSC[C@H](NC(=O)[C@@H](N)Cc4ccc(O)cc4)C(=O)N[C@@H](CCC(N)=O)C(=O)N[C@@H](CCCCN)C(=O)N[C@@H](Cc4c[nH]c5ccccc45)C(=O)N[C@@H](CCCC)C(=O)N[C@@H](Cc4c[nH]c5ccccc45)C(=O)N[C@@H]([C@@H](C)O)C(=O)N2)NC(=O)[C@H](CSSC[C@@H](C(=O)N[C@@H](CCCNC(=N)N)C(=O)N[C@@H](CCCCN)C(=O)N[C@@H](Cc2ccc(O)cc2)C(=O)N[C@H](C(N)=O)[C@@H](C)CC)NC(=O)[C@H](Cc2c[nH]c4ccccc24)NC(=O)[C@H](CC(C)C)NC(=O)[C@H](CCCCN)NC3=O)NC(=O)[C@H](C)NC(=O)[C@H](CCCNC(=N)N)NC(=O)[C@H](CCCCN)NC1=O [compound 315] | 1914 | 643 |  |  |  |  |  |  |  |  |  | 
2 | C#CC[C@@H]1NC(=O)[C@H](CCCNC(=N)N)NC(=O)[C@H](CCCCN)NC(=O)[C@H](CO)NC(=O)[C@H](CC(=O)O)NC(=O)[C@@H]2CSSC[C@@H]3NC(=O)[C@H](CCCNC(=N)N)NC(=O)[C@H](CC(C)C)NC(=O)CNC(=O)[C@H](CCC(=O)O)NC(=O)[C@H](CSSC[C@H](NC(=O)[C@@H](N)Cc4ccc(O)cc4)C(=O)N[C@@H](CCC(N)=O)C(=O)N[C@@H](CCCCN)C(=O)N[C@@H](Cc4c[nH]c5ccccc45)C(=O)N[C@@H](CCCC)C(=O)N[C@@H](Cc4c[nH]c5ccccc45)C(=O)N[C@@H]([C@@H](C)O)C(=O)N2)NC(=O)[C@H](CSSC[C@@H](C(=O)N[C@@H](CCCNC(=N)N)C(=O)N[C@@H](CCCCN)C(=O)N[C@@H](CCC(=O)O)C(=O)N[C@H](C(N)=O)[C@@H](C)CC)NC(=O)[C@H](Cc2c[nH]c4ccccc24)NC(=O)[C@H](CC(C)C)NC(=O)[C@H](CCCCN)NC3=O)NC1=O [compound 331] | 7119 | 213 |  |  |  |  |  |  |  |  |  | 
3 | CC[C@H](C)[C@H](NC(=O)[C@@H](NC(=O)[C@H](CCCCN)NC(=O)[C@H](CCCNC(=N)N)NC(=O)[C@@H]1CSSC[C@@H]2NC(=O)[C@H](C)NC(=O)[C@H](CCCNC(=N)N)NC(=O)[C@H](CCCCN)NC(=O)[C@H](CO)NC(=O)[C@H](CC(=O)O)NC(=O)[C@@H]3CSSC[C@H](NC(=O)[C@H](CCCNC(=N)N)NC(=O)[C@H](CC(C)C)NC(=O)CNC(=O)[C@H](CCC(=O)O)NC(=O)[C@H](CSSC[C@H](NC(=O)[C@@H](N)Cc4ccc(O)cc4)C(=O)N[C@@H](CCC(N)=O)C(=O)N[C@@H](CCCCN)C(=O)N[C@@H](Cc4c[nH]c5ccccc45)C(=O)N[C@@H](CCSC)C(=O)N[C@@H](CCC(=O)O)C(=O)N[C@@H]([C@@H](C)O)C(=O)N3)NC2=O)C(=O)N[C@@H](CCCCN)C(=O)N[C@@H](CC(C)C)C(=O)N[C@@H](Cc2c[nH]c3ccccc23)C(=O)N1)[C@@H](C)CC)C(N)=O [compound 54] |  |  | 0.56 | 2.6 | 5 | > 10 | 2.8 | > 5 |  |  |  | 
4 | CC[C@H](C)[C@H](NC(=O)[C@H](CCCCN)NC(=O)[C@H](CCCNC(=N)N)NC(=O)[C@@H]1CSSC[C@@H]2NC(=O)[C@H](C)NC(=O)[C@H](CCCNC(=N)N)NC(=O)[C@H](CCCCN)NC(=O)[C@H](CO)NC(=O)[C@H](CC(=O)O)NC(=O)[C@@H]3CSSC[C@H](NC(=O)[C@H](CCCNC(=N)N)NC(=O)[C@H](CC(C)C)NC(=O)CNC(=O)[C@H](CCC(=O)O)NC(=O)[C@H](CSSC[C@H](NC(=O)[C@@H](N)Cc4ccc(O)cc4)C(=O)N[C@@H](CCC(N)=O)C(=O)N[C@@H](CCCCN)C(=O)N[C@@H](Cc4c[nH]c5ccccc45)C(=O)N[C@@H](CCSC)C(=O)N[C@@H](Cc4c[nH]c5ccccc45)C(=O)N[C@@H]([C@@H](C)O)C(=O)N3)NC2=O)C(=O)N[C@@H](CCCCN)C(=O)N[C@@H](CC(C)C)C(=O)N[C@@H](Cc2c[nH]c3ccccc23)C(=O)N1)C(=O)N[C@@H](CCC(=O)O)C(N)=O [compound 70] |  |  | 0.28 | > 5 | 18 | > 10 | 5 | > 5 | 0.261 | 43 | >38 | >38
5 | CC[C@H](C)[C@H](NC(=O)[C@H](CCC(=O)O)NC(=O)[C@H](CCCCN)NC(=O)[C@H](CCCNC(=N)N)NC(=O)[C@@H]1CSSC[C@@H]2NC(=O)[C@H](C)NC(=O)[C@H](CCCNC(=N)N)NC(=O)[C@H](CCCCN)NC(=O)[C@H](CO)NC(=O)[C@H](CC(=O)O)NC(=O)[C@@H]3CSSC[C@H](NC(=O)[C@H](CCCNC(=N)N)NC(=O)[C@H](CC(C)C)NC(=O)CNC(=O)[C@H](CCC(=O)O)NC(=O)[C@H](CSSC[C@H](NC(=O)[C@@H](N)Cc4ccc(O)cc4)C(=O)N[C@@H](CCC(N)=O)C(=O)N[C@@H](CCCCN)C(=O)N[C@@H](Cc4c[nH]c5ccccc45)C(=O)N[C@@H](CCSC)C(=O)N[C@@H](Cc4c[nH]c5ccccc45)C(=O)N[C@@H]([C@@H](C)O)C(=O)N3)NC2=O)C(=O)N[C@@H](CCCCN)C(=O)N[C@@H](CC(C)C)C(=O)N[C@@H](Cc2c[nH]c3ccccc23)C(=O)N1)C(N)=O [compound 69] |  |  | 0.028 | 0.83 | 30 | 0.248 | 0.33 | > 5 | 0.000568 | 300 | 8800 | 437
6 | CC[C@H](C)[C@H](NC(=O)[C@@H](NC(=O)[C@H](CCCCN)NC(=O)[C@H](CCCNC(=N)N)NC(=O)[C@@H]1CSSC[C@@H]2NC(=O)[C@H](C)NC(=O)[C@H](CCCNC(=N)N)NC(=O)[C@H](CCCCN)NC(=O)[C@H](CCC(=O)O)NC(=O)[C@H](CC(=O)O)NC(=O)[C@@H]3CSSC[C@H](NC(=O)[C@H](CCCNC(=N)N)NC(=O)[C@H](CC(C)C)NC(=O)CNC(=O)[C@H](CCC(=O)O)NC(=O)[C@H](CSSC[C@H](NC(=O)[C@@H](N)Cc4ccc(O)cc4)C(=O)N[C@@H](CCC(N)=O)C(=O)N[C@@H](CCCCN)C(=O)N[C@@H](Cc4c[nH]c5ccccc45)C(=O)N[C@@H](CCSC)C(=O)N[C@@H](Cc4c[nH]c5ccccc45)C(=O)N[C@@H]([C@@H](C)O)C(=O)N3)NC2=O)C(=O)N[C@@H](CCCCN)C(=O)N[C@@H](CC(C)C)C(=O)N[C@@H](Cc2c[nH]c3ccccc23)C(=O)N1)[C@@H](C)CC)C(N)=O [compound 57] |  |  | 0.039 | 0.38 | 10 | 0.2 | 0.19 | > 5 |  |  |  | 
7 | CC[C@H](C)[C@H](NC(=O)[C@@H](NC(=O)[C@H](CCCCN)NC(=O)[C@H](CCCNC(=N)N)NC(=O)[C@@H]1CSSC[C@@H]2NC(=O)[C@H](C)NC(=O)[C@H](CCCNC(=N)N)NC(=O)[C@H](CCCCN)NC(=O)[C@H](CO)NC(=O)[C@H](CC(=O)O)NC(=O)[C@@H]3CSSC[C@H](NC(=O)[C@H](CCCNC(=N)N)NC(=O)[C@H](CC(C)C)NC(=O)CNC(=O)[C@H](CCC(=O)O)NC(=O)[C@H](CSSC[C@H](NC(=O)[C@@H](N)Cc4ccc(O)cc4)C(=O)N[C@@H](CCC(N)=O)C(=O)N[C@@H](CCCCN)C(=O)N[C@@H](Cc4c[nH]c5ccccc45)C(=O)N[C@@H](CCSC)C(=O)N[C@@H](Cc4c[nH]c5ccccc45)C(=O)N[C@@H]([C@@H](C)O)C(=O)N3)NC2=O)C(=O)N[C@@H](CCCCN)C(=O)N[C@@H](CCC(=O)O)C(=O)N[C@@H](Cc2c[nH]c3ccccc23)C(=O)N1)[C@@H](C)CC)C(N)=O [compound 65] |  |  | 4 | > 5 | 1 | 9.55 | 2 | > 5 |  |  |  | 
8 | CC[C@H](C)[C@H](NC(=O)[C@@H](NC(=O)[C@H](CCCCN)NC(=O)[C@H](CCCNC(=N)N)NC(=O)[C@@H]1CSSC[C@@H]2NC(=O)[C@H](CCC(=O)O)NC(=O)[C@H](CCCNC(=N)N)NC(=O)[C@H](CCCCN)NC(=O)[C@H](CO)NC(=O)[C@H](CC(=O)O)NC(=O)[C@@H]3CSSC[C@H](NC(=O)[C@H](CCCNC(=N)N)NC(=O)[C@H](CC(C)C)NC(=O)CNC(=O)[C@H](CCC(=O)O)NC(=O)[C@H](CSSC[C@H](NC(=O)[C@@H](N)Cc4ccc(O)cc4)C(=O)N[C@@H](CCC(N)=O)C(=O)N[C@@H](CCCCN)C(=O)N[C@@H](Cc4c[nH]c5ccccc45)C(=O)N[C@@H](CCSC)C(=O)N[C@@H](Cc4c[nH]c5ccccc45)C(=O)N[C@@H]([C@@H](C)O)C(=O)N3)NC2=O)C(=O)N[C@@H](CCCCN)C(=O)N[C@@H](CC(C)C)C(=O)N[C@@H](Cc2c[nH]c3ccccc23)C(=O)N1)[C@@H](C)CC)C(N)=O [compound 60] |  |  | 0.02 | 0.23 | 12 | 0.146 | 0.11 | > 5 |  |  |  | 
